{
  "source": "paper PMC4414309",
  "about": "“Target Modulation by a Kinase Inhibitor Engineered to Induce a Tandem Blockade of the Epidermal Growth Factor Receptor (EGFR) and c-Src: The Concept of Type III Combi-Targeting” (PLoS ONE, 2015)",
  "key": {"[1]": {"system": "EGFR phosphorylation in 4T1 tumours", "experiment": "Pharmacodynamics in 4T1 tumours, EGFR phosphorylation", "settings": "i.v., AL776 40 mg/kg, gefitinib + dasatinib 20 mg/kg each", "protocol": "(§3) Mice were implanted with 4T1 mammary tumour cells, 15 million cells/flank (suspended in 200 μL PBS), subcutaneously.\n(§4) Mice were sacrificed 1h or 24h after treatment and their tumours were collected and snap frozen at -80°C for further analysis using western blots. Tumours were crushed using a mortar/pestle chilled using liquid nitrogen and lysed with RIPA buffer diluted to a 1X concentration and supplemented with 1mM PMSF (Cell Signaling Technology, USA). Western blot analysis was carried out with the tumour samples, similar to the method described earlier."}, "[2]": {"system": "c-Src phosphorylation in 4T1 tumours", "experiment": "Pharmacodynamics in 4T1 tumours, c-Src phosphorylation", "settings": "i.v., AL776 40 mg/kg, gefitinib + dasatinib 20 mg/kg each", "protocol": "as §3, §4"}, "[3]": {"system": "4T1 cells", "experiment": "Boyden chamber invasion assay, 4T1", "type": "cell-based, mouse", "settings": "4T1, concentration as low as 0.1 μM, 24h", "description": "The invasive property of MDA-MB-231 and 4T1 cells was determined using the Boyden-chamber invasion assay. Cells suspended in serum-free media were plated (120–150,000 cells/well) onto polycarbonate transwell inserts (8 μm pore size, BD Biosciences) coated with matrigel (6%) (BD Biosciences), separating the top and bottom chambers (50 μl/filter). […] The invasive property of cells was observed 24h after treatment by fixing cells in formalin and staining with 0.1% crystal violet (Sigma-Aldrich Canada Ltd). Cells attached on the upper surface of the insert (top chamber) were removed by gently scraping away with a cotton swab, whereas those that invaded onto the lower side of the insert were observed using a microscope (Leica DM IL inverted microscope, 10X). Images of five non-overlapping fields of invading cells were captured using the Leica DFC300FX camera and quantification was done using the Scion Image Analysis (3.53.0.0) software and ImageJ 1.46r software. The results were expressed in terms of percentage of invading cells relative to control and the bar graphs represent the average of three independent experiments."}, "[4]": {"system": "NIH3T3 wild type cells", "experiment": "Growth inhibition, sulforhodamine B (SRB) assay, NIH3T3 wild type", "settings": "Mus musculus, NIH3T3, 120 h, read-out: IC50 growth inhibition NIH3T3 – Wt", "protocol": "(§5) Growth inhibition was measured in cells using the sulforhodamine B (SRB) assay [48]. […] The plates were subsequently rinsed with 1% acetic acid, and allowed to dry overnight. […] The results were analyzed using GraphPad Prism 6.0 (GraphPadSoftware, Inc., San Diego, CA) and the sigmoidal dose response curve was used to determine IC50 values. Each experiment was carried out at least four times, in triplicate."}, "[5]": {"system": "4T1 cells", "experiment": "Wound-healing assay, 4T1", "type": "cell-based, mouse", "settings": "4T1, 0.1 μM, 24h drug exposure", "description": "(§1) MDA-MB-231 and 4T1 cells were plated in 6-well plates (500,000 cells/well) and allowed to attach overnight (37°C, 5% CO2). The following day, media was removed and a cross scratch was made in the middle of the cell monolayer. […] The scratch was visualized at two different time points (0 and 24h) using the Leica DM IL inverted microscope (10X) and images were obtained using the Leica DFC300FX camera."}, "[6]": {"system": "NIH3T3-Her14 (EGFR transfected) cells", "experiment": "Growth inhibition, SRB assay, NIH3T3-Her14", "protocol": "as §5"}, "[7]": {"system": "phospho-EGFR (Y1068)", "experiment": "Western blot of EGFR phosphorylation in cells", "type": "cell-based, mouse", "description": "NIH3T3-Her14 and 4T1 cells grown in 10% FBS containing media were plated (~ 1 x 10^6 cells/well) in 6-well plates and allowed to attach overnight (37°C, 5% CO2). The cells were rinsed twice with PBS twenty-four hours later and starved overnight on addition of serum-free media. Thereafter, they were treated with different doses of AL776 for 2 hours, washed with PBS (twice) and stimulated with 50 ng/ml EGF for 30 min at 37°C. Cells were washed, detached by scraping in ice-cold PBS and collected by centrifugation for 15 min at 3000 rpm. Cell pellets were re-suspended in cold lysis buffer 50 mM Tris-HCl pH 7.5; 150 mM NaCl; 1% Nonidet P-40, 1 mM EDTA; 5 mM NaF; 1 mM Na3VO4; protease inhibitor tablet (Roche Biochemicals, Laval, Canada)]. Lysates were kept on ice for 1 h and collected by centrifugation at 13,000 rpm for 20 min at 4°C. The concentration of protein was determined using the Bio-Rad protein assay kit (Bio-Rad laboratories, Hercules, CA). Equal amounts of proteins were loaded, resolved on 10% SDS-PAGE and thereafter transferred to a polyvinylidenedifluoride (PVDF) membrane (Milipore, Bedford, MA). […]"}, "[8]": {"target": "T1, EGFR (Homo sapiens, UniProt P00533)", "T1 construct": "purchased Enzo Life Sciences Inc, NY, USA; Signal Chem, Richmond, Canada", "T1 sequence (P00533 25-1210)": "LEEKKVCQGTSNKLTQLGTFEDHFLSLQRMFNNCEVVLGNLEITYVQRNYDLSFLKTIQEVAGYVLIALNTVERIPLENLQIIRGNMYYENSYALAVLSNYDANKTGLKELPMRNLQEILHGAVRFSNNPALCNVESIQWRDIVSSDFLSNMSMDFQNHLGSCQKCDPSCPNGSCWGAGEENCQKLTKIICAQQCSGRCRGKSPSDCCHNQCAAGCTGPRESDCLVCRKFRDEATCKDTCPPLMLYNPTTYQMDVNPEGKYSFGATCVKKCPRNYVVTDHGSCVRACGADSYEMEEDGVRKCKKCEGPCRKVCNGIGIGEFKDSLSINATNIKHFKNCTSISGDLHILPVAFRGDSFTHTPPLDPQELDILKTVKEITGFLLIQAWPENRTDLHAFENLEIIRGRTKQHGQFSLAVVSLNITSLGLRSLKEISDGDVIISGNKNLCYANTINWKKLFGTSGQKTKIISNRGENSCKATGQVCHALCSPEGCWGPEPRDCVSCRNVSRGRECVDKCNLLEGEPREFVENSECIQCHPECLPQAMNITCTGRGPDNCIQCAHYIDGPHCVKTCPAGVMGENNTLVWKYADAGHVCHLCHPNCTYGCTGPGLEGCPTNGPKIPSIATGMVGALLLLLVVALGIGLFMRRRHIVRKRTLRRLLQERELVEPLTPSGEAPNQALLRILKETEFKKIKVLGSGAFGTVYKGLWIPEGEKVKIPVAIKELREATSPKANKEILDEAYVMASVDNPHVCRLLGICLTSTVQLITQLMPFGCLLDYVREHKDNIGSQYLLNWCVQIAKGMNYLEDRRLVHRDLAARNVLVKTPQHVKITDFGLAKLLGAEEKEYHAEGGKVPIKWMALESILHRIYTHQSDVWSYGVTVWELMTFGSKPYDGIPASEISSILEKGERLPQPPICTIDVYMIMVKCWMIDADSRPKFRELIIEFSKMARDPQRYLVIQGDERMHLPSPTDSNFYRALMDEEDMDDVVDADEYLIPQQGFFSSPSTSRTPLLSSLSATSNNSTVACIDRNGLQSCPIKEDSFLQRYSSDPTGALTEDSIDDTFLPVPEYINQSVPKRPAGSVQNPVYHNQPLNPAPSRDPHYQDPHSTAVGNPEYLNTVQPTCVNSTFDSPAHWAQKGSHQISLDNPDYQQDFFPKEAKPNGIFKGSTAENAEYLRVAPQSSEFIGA", "experiment": "In vitro kinase assay, EGFR", "type": "biochemical", "settings": "ATP 50 μM, average of three independent experiments in duplicate, read-out: IC50 EGFR kinase inhibition", "description": "(§2) The EGFR and c-Src kinase assays were performed in 96-well plates (NuncMaxisorp) coated with PGT (poly L-glutamic acid L-tyrosine, 4:1, Sigma Aldrich, MO, USA) and incubated at 37°C for 48h prior to using. PGT served as the substrate to be phosphorylated by EGFR (Enzo Life Sciences Inc, NY, USA, Signal Chem, Richmond, Canada) and c-Src (Enzo Life Sciences Inc, NY, USA, Signal Chem, Richmond, Canada) in the presence of ATP (50 μM). […] To each well, 15 ng of EGFR (20 μg/ml) or 6 ng of c-Src (0.1 μg/μl) were added. The phosphorylated substrate was detected using an HRP-conjugated anti-phosphotyrosine antibody (Santa Cruz Biotechnology, CA). The signal was developed by the addition of 3, 3’, 5, 5’-tetramethylbenzidine peroxidase substrate (Kierkegaard and Perry Laboratories, Gaithersburg, MD) and the colorimetric reaction was monitored at 450 nm using a microplate reader ELx808 (BioTek Instruments). The IC50 values were calculated using GraphPad Prism 6.0 (GraphPadSoftware, Inc., San Diego, CA). Each experiment was carried out at least three times, in duplicate."}, "[9]": {"target": "T2, c-Src (Homo sapiens, UniProt P12931)", "T2 construct": "purchased Enzo Life Sciences Inc, NY, USA; Signal Chem, Richmond, Canada", "T2 sequence (P12931 whole entry)": "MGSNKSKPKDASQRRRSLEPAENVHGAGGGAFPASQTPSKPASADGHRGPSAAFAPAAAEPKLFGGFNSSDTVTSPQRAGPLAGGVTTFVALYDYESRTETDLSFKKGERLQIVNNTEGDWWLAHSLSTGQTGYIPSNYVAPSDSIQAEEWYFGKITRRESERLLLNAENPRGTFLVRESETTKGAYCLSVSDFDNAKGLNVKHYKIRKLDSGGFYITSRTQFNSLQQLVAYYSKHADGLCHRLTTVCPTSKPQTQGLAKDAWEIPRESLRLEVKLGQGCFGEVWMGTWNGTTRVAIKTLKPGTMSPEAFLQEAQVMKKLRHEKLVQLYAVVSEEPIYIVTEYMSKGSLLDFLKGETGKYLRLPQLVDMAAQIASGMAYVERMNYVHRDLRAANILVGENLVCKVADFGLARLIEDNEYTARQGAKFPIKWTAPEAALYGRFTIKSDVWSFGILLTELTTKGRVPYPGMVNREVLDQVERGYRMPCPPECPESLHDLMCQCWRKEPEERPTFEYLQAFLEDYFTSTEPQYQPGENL", "experiment": "In vitro kinase assay, c-Src", "type": "biochemical", "settings": "ATP 50 μM, read-out: IC50 c-Src kinase inhibition", "description": "as §2"}, "[10]": {"system": "MDA-MB-231 cells", "experiment": "Wound-healing assay, MDA-MB-231", "type": "cell-based, human", "settings": "MDA-MB-231, 0.1 μM, 24h drug exposure", "description": "as §1"}},
  "data": [
    {"molecule": "Cc1nc(Nc2ncc(C(=O)Nc3c(C)cccc3Cl)s2)cc(N2CCN(CCOC(=O)CCC(=O)OCCN(C)Cc3ccc(C(=O)Nc4ccc5ncnc(Nc6cccc(Cl)c6)c5c4)cc3)CC2)n1", "note": "[AL776]", "values": [
      {"measurement": "Inhibition of EGFR phosphorylation in tumours", "setting": "[1]; 1h post-administration", "result": "strong blockade"},
      {"measurement": "Inhibition of EGFR phosphorylation in tumours", "setting": "[1]; 24 h post-treatment", "result": "reversed"},
      {"measurement": "Inhibition of c-Src phosphorylation in tumours", "setting": "[2]; 1h post-administration", "result": "strong blockade"},
      {"measurement": "Inhibition of c-Src phosphorylation in tumours", "setting": "[2]; 24 h post-treatment", "result": "reversed"},
      {"measurement": "Effect on invasion", "setting": "[3]", "result": "strongly inhibited invasion"},
      {"measurement": "IC50", "setting": "[4]", "result": "7600 ± 3000", "unit": "nM"},
      {"measurement": "Effect on wound-closure", "setting": "[5]", "result": "blocked wound-closure"},
      {"measurement": "Rank of growth inhibitory potency among the binary targeting molecules", "setting": "[6]; EGFR transfectant, S2 Fig.", "result": "most potent on the EGFR transfectant"},
      {"measurement": "IC50", "setting": "[6]; Mus musculus, 120 h, read-out: IC50 growth inhibition NIH3T3 – Her14", "result": 180, "unit": "nM"},
      {"measurement": "Growth inhibitory potency compared with gefitinib or dasatinib", "setting": "[6]; NIH3T3-Her14 cells, 5 days", "result": "2–4 fold"},
      {"measurement": "Concentration of maximal inhibition of EGFR phosphorylation", "setting": "[7]; NIH3T3-Her14 and 4T1 cells, 2 h drug, EGF 50 ng/ml 30 min", "result": 1, "unit": "µM"},
      {"measurement": "Concentration of robust inhibition of EGFR phosphorylation in cells", "setting": "[7]; in cells", "result": "0.25 to 1", "unit": "µM"},
      {"measurement": "IC50", "setting": "[8]", "result": 120, "unit": "nM"},
      {"measurement": "IC50", "setting": "[9]", "result": 3, "unit": "nM"},
      {"measurement": "Effect on wound-closure", "setting": "[10]", "result": "blocked wound-closure"}
    ]}
  ]
}
